US9518018B2, “3-alkoxy, thioalkyl and amino-4-amino-6-(substituted)picolinates and their use as herbicides” (Dow AgroSciences LLC, priority 2011, dated 2016)

Tested on: desired test plant species
Test: Foliar-applied postemergence herbicidal activity in direct seeded rice (Table 6)
Assay type: in vivo
Conditions: 21 DAA
Description: Seeds or nutlets of the desired test plant species were planted in a soil matrix prepared by mixing a loam soil (43 percent silt, 19 percent clay, and 38 percent sand, with a pH of about 8.1 and an organic matter content of about 1.5 percent) and river sand in an 80 to 20 ratio. The soil matrix was contained in plastic pots with a surface area of 139.7 cm^2. When required to ensure good germination and healthy plants, a fungicide treatment and/or other chemical or physical treatment was applied. The plants were grown for 10-17 d in a greenhouse with an approximate 14-h photoperiod which was maintained at about 29° C. during the day and 26° C. during the night. Nutrients and water were added on a regular basis and supplemental lighting was provided with overhead metal halide 1000-Watt lamps as necessary. The plants were employed for testing when they reached the second or third true leaf stage. Treatments consisted of compounds 45, 34, and 66. Weighed amounts of technical compounds were placed in individual 25 mL glass vials and dissolved in 8 mL of 97:3 v/v acetone-DMSO to obtain stock solutions. […] The spray application solutions were prepared by removing 4 mL of the stock solution and diluting with 4 mL of 97:3 v/v acetone-DMSO and continued serial dilution to obtain 1⁄2×, 1⁄4×, 1⁄8×, and 1/16× rates of the high rate. Spray solutions were diluted to the appropriate final concentrations with the addition of 8 mL of an aqueous mixture of 1.875% (v/v) Agri-dex crop oil concentrate. The final 12-mL spray solutions each contained 1.25% (v/v) Agri-dex crop oil concentrate, 32.3% acetone, and 1.0% DMSO. Compound requirements are based upon a 12 mL application volume at a rate of 187 L/ha. Spray solutions were applied to the plant material with an overhead Mandel track sprayer equipped with […] nozzles calibrated to deliver 187 L/ha over an application area of 0.503 square meters (m^2) at a spray height of 18 inches ([…]) above average plant canopy height. Control plants were sprayed in the same manner with the solvent blank. The treated plants and control plants were placed in a greenhouse as described above and watered by sub-irrigation to prevent wash-off of the test compounds. After approximately 3 weeks, the condition of the test plants, compared with that of the untreated plants, was determined visually and scored on a scale of 0 to 100 percent where 0 corresponds to no injury and 100 corresponds to complete kill. By applying the well-accepted probit analysis as described by J. Berkson in Journal of the […], 48, 565 (1953) and by D. Finney in “Probit Analysis” Cambridge University Press (1952) or by plotting the mean data and fitting a logarithmic curve to the portion of the data where there was a dose response using Microsoft Excel®, the above data can be used to calculate GR50 and GR90 values, which are defined as growth reduction factors that correspond to the effective dose of herbicide required to kill or control 50 percent or 90 percent, respectively, of a target plant.

SMILES: COc1c(C(=O)OCc2ccccc2)nc(-c2ccc(Cl)c(OC)c2F)c(F)c1N [Compound 66, benzyl 4-amino-6-(4-chloro-2-fluoro-3-methoxyphenyl)-5-fluoro-3-methoxypicolinate]
- Mean Visual Injury (%)-21 Days After Application AESSE (AESSE (Aeschynomene sensitiva, sensitive jointvetch), 4.38 g ae/ha): 100%
- Mean Visual Injury (%)-21 Days After Application AESSE (AESSE (Aeschynomene sensitiva, sensitive jointvetch), 8.75 g ae/ha): 100%
- Mean Visual Injury (%)-21 Days After Application AESSE (AESSE (Aeschynomene sensitiva, sensitive jointvetch), 17.5 g ae/ha): 100%
- Mean Visual Injury (%)-21 Days After Application AESSE (AESSE (Aeschynomene sensitiva, sensitive jointvetch), 35 g ae/ha): 100%
- Mean Visual Injury (%)-21 Days After Application AESSE (AESSE (Aeschynomene sensitiva, sensitive jointvetch), 70 g ae/ha): 100%
- GR50 AESSE (AESSE (Aeschynomene sensitiva, sensitive jointvetch), dose to kill or control 50 percent): <4.38 g ae/ha
- GR90 AESSE (AESSE (Aeschynomene sensitiva, sensitive jointvetch), dose to kill or control 90 percent): <4.38 g ae/ha
- Mean Visual Injury (%)-21 Days After Application BRAPP (BRAPP (Brachiaria platyphylla, broadleaf signalgrass), 2.19 g ae/ha): 53%
- Mean Visual Injury (%)-21 Days After Application BRAPP (BRAPP (Brachiaria platyphylla, broadleaf signalgrass), 4.38 g ae/ha): 72%
- Mean Visual Injury (%)-21 Days After Application BRAPP (BRAPP (Brachiaria platyphylla, broadleaf signalgrass), 8.75 g ae/ha): 83%
- Mean Visual Injury (%)-21 Days After Application BRAPP (BRAPP (Brachiaria platyphylla, broadleaf signalgrass), 17.5 g ae/ha): 90%
- Mean Visual Injury (%)-21 Days After Application BRAPP (BRAPP (Brachiaria platyphylla, broadleaf signalgrass), 35 g ae/ha): 87%
- Mean Visual Injury (%)-21 Days After Application BRAPP (BRAPP (Brachiaria platyphylla, broadleaf signalgrass), 70 g ae/ha): 93%
- GR50 BRAPP (BRAPP (Brachiaria platyphylla, broadleaf signalgrass), dose to kill or control 50 percent): <2.19 g ae/ha
- GR90 BRAPP (BRAPP (Brachiaria platyphylla, broadleaf signalgrass), dose to kill or control 90 percent): 34.4 g ae/ha
- Mean Visual Injury (%)-21 Days After Application CYPDI (CYPDI (Cyperus difformis, small-flower flatsedge), 2.19 g ae/ha): 70%
- Mean Visual Injury (%)-21 Days After Application CYPDI (CYPDI (Cyperus difformis, small-flower flatsedge), 4.38 g ae/ha): 91%
- Mean Visual Injury (%)-21 Days After Application CYPDI (CYPDI (Cyperus difformis, small-flower flatsedge), 8.75 g ae/ha): 96%
- Mean Visual Injury (%)-21 Days After Application CYPDI (CYPDI (Cyperus difformis, small-flower flatsedge), 17.5 g ae/ha): 100%
- Mean Visual Injury (%)-21 Days After Application CYPDI (CYPDI (Cyperus difformis, small-flower flatsedge), 35 g ae/ha): 99%
- Mean Visual Injury (%)-21 Days After Application CYPDI (CYPDI (Cyperus difformis, small-flower flatsedge), 70 g ae/ha): 97%
- GR50 CYPDI (CYPDI (Cyperus difformis, small-flower flatsedge), dose to kill or control 50 percent): <2.19 g ae/ha
- GR90 CYPDI (CYPDI (Cyperus difformis, small-flower flatsedge), dose to kill or control 90 percent): 6.6 g ae/ha
- Mean Visual Injury (%)-21 Days After Application CYPES (CYPES (Cyperus esculentus, yellow nutsedge), 2.19 g ae/ha): 60%
- Mean Visual Injury (%)-21 Days After Application CYPES (CYPES (Cyperus esculentus, yellow nutsedge), 4.38 g ae/ha): 67%
- Mean Visual Injury (%)-21 Days After Application CYPES (CYPES (Cyperus esculentus, yellow nutsedge), 8.75 g ae/ha): 93%
- Mean Visual Injury (%)-21 Days After Application CYPES (CYPES (Cyperus esculentus, yellow nutsedge), 35 g ae/ha): 94%
- Mean Visual Injury (%)-21 Days After Application CYPES (CYPES (Cyperus esculentus, yellow nutsedge), 70 g ae/ha): 95%
- GR50 CYPES (CYPES (Cyperus esculentus, yellow nutsedge), dose to kill or control 50 percent): <2.19 g ae/ha
- GR90 CYPES (CYPES (Cyperus esculentus, yellow nutsedge), dose to kill or control 90 percent): 13.1 g ae/ha
- Mean Visual Injury (%)-21 Days After Application CYPIR (CYPIR (Cyperus iria, rice flatsedge), 2.19 g ae/ha): 43%
- Mean Visual Injury (%)-21 Days After Application CYPIR (CYPIR (Cyperus iria, rice flatsedge), 4.38 g ae/ha): 81%
- Mean Visual Injury (%)-21 Days After Application CYPIR (CYPIR (Cyperus iria, rice flatsedge), 8.75 g ae/ha): 99%
- Mean Visual Injury (%)-21 Days After Application CYPIR (CYPIR (Cyperus iria, rice flatsedge), 17.5 g ae/ha): 100%
- Mean Visual Injury (%)-21 Days After Application CYPIR (CYPIR (Cyperus iria, rice flatsedge), 35 g ae/ha): 100%
- Mean Visual Injury (%)-21 Days After Application CYPIR (CYPIR (Cyperus iria, rice flatsedge), 70 g ae/ha): 99%
- GR50 CYPIR (CYPIR (Cyperus iria, rice flatsedge), dose to kill or control 50 percent): 2.4 g ae/ha
- GR90 CYPIR (CYPIR (Cyperus iria, rice flatsedge), dose to kill or control 90 percent): 6.4 g ae/ha
- Mean Visual Injury (%)-21 Days After Application ECHCG (ECHCG (Echinochloa crus-galli, barnyardgrass), 2.19 g ae/ha): 78%
- Mean Visual Injury (%)-21 Days After Application ECHCG (ECHCG (Echinochloa crus-galli, barnyardgrass), 4.38 g ae/ha): 86%
- Mean Visual Injury (%)-21 Days After Application ECHCG (ECHCG (Echinochloa crus-galli, barnyardgrass), 8.75 g ae/ha): 95%
- Mean Visual Injury (%)-21 Days After Application ECHCG (ECHCG (Echinochloa crus-galli, barnyardgrass), 17.5 g ae/ha): 96%
- Mean Visual Injury (%)-21 Days After Application ECHCG (ECHCG (Echinochloa crus-galli, barnyardgrass), 35 g ae/ha): 97%
- Mean Visual Injury (%)-21 Days After Application ECHCG (ECHCG (Echinochloa crus-galli, barnyardgrass), 70 g ae/ha): 95%
- GR50 ECHCG (ECHCG (Echinochloa crus-galli, barnyardgrass), dose to kill or control 50 percent): <42.19 g ae/ha
- GR90 ECHCG (ECHCG (Echinochloa crus-galli, barnyardgrass), dose to kill or control 90 percent): 8.3 g ae/ha
- Mean Visual Injury (%)-21 Days After Application ECHCO (ECHCO (Echinochloa colonum, junglerice), 2.19 g ae/ha): 62%
